pEC50: −log10 of the molar value.
tested on: IL-6 (THP-1 cells); assay: IL-6 inhibition in LPS-stimulated THP-1 human monocyte cells (HTRF); assay type: cell-based; settings: LPS 500 ng/mL, 22 hours, IL6 HTRF
In short: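 THP-1 cells, serum-reduced (1% FBS) for 24 h, were preincubated with compound (10-point 1:3 series from 10 μM, 0.1% DMSO) for 2 h, then stimulated with 500 ng/mL LPS for 22 h at 37° C. IL-6 was read by HTRF (665/620 nm ratio) and normalized to DMSO. EC50 from four-parameter fit; % inhibition at 10 μM given if EC50 >10 μM.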

Compound | pEC50
CN(C)CCNc1cc(F)cc(-c2cccc3[nH]c(-c4n[nH]c5ccc(-c6cccnc6)nc45)cc23)c1 [Compound 452, N^1-(3-Fluoro-5-(2-(5-(pyridin-3-yl)-1H-pyrazolo[4,3-b]pyridin-3-yl)-1H-indol-4-yl)phenyl)-N^2,N^2-dimethylethane-1,2-diamine] | 7.17
CN(C)CCNc1cc(F)cc(-c2cccc3[nH]c(-c4n[nH]c5ccc(-c6cncc(CN7CCCCC7)c6)nc45)cc23)c1 [Compound 463, N^1-(3-Fluoro-5-(2-(5-(5-(piperidin-1-ylmethyl)pyridin-3-yl)-1H-pyrazolo [4,3-b]pyridin-3-yl)-1H-indol-4-yl)phenyl)-N^2,N^2-dimethylethane-1,2-diamine] | 6.68
CN(C)CCNc1cc(F)cc(-c2cccc3[nH]c(-c4n[nH]c5ccc(-c6cncnc6)nc45)cc23)c1 [Compound 475, N^1-(3-Fluoro-5-(2-(5-(pyrimidin-5-yl)-1H-pyrazolo[4,3-b]pyridin-3-yl)-1H-indol-4-yl)phenyl)-N^2,N^2-dimethylylethane-1,2-diamine] | 7.74
CN(C)CCNc1cc(F)cc(-c2cccc3[nH]c(-c4n[nH]c5ccc(-c6ccccn6)nc45)cc23)c1 [Compound 476, N^1-(3-Fluoro-5-(2-(5-(pyridin-2-yl)-1H-pyrazolo[4,3-b]pyridin-3-yl)-1H-indol-4-yl)phenyl)-N^2,N^2-dimethylethane-1,2-diamine] | 6.56
Cc1ccncc1-c1ccc2[nH]nc(-c3cc4c(-c5cc(F)cc(CNS(C)(=O)=O)c5)cccc4[nH]3)c2n1 [Compound 481, N-(3-Fluoro-5-(2-(5-(4-methylpyridin-3-yl)-1H-pyrazolo[4,3-b]pyridin-3-yl)-1H-indol-4-yl)benzyl)methanesulfonamide] | 7.00
Nc1cncc(-c2ccc3[nH]nc(-c4cc5ncccc5[nH]4)c3n2)c1 [Compound 507, 5-(3-(1H-Pyrrolo[3,2-b]pyridin-2-yl)-1H-pyrazolo[4,3-b]pyridin-5-yl) pyridin-3-amine] | 8.10
Fc1cccc(-c2cccc3[nH]c(-c4n[nH]c5ccc(-c6cncc(OCc7ccccc7)c6)nc45)cc23)c1 [Compound 546, 5-(5-(Benzyloxy)pyridin-3-yl)-3-(4-(3-fluorophenyl)-1H-indol-2-yl)-1H-pyrazolo[4,3-b]pyridine] | 5.54
c1cc(-c2ccncc2)c2cc(-c3n[nH]c4ccc(-c5cncc(OCCN6CCCC6)c5)nc34)[nH]c2c1 [Compound 606, 3-(4-(Pyridin-4-yl)-1H-indol-2-yl)-5-(5-(2-(pyrrolidin-1-yl)ethoxy)pyridin-3-yl)-1H-pyrazolo[4,3-b]pyridine] | 7.57
O=C(CC1CCNCC1)Nc1cncc(-c2ccc3[nH]nc(-c4cc5c(-c6ccccn6)cccc5[nH]4)c3n2)c1 [Compound 621, 2-(Piperidin-4-yl)-N-(5-(3-(4-(pyridin-2-yl)-1H-indol-2-yl)-1H-pyrazolo[4,3-b]pyridin-5-yl)pyridin-3-yl)acetamide] | 7.28
c1cc(N2CCCCC2)c2cc(-c3n[nH]c4ccc(-c5cncc(OC6CCNCC6)c5)nc34)[nH]c2c1 [Compound 636, 3-(4-(Piperidin-1-yl)-1H-indol-2-yl)-5-(5-(piperidin-4-yloxy)pyridin-3-yl)-1H-pyrazolo[4,3-b]pyridine] | 5.70
c1cc(-c2ccoc2)c2cc(-c3n[nH]c4ccc(-c5cn[nH]c5)nc34)[nH]c2c1 [Compound 711, 3-(4-(Furan-3-yl)-1H-indol-2-yl)-5-(1H-pyrazol-4-yl)-1H-pyrazolo[4,3-b] pyridine] | 7.14
c1cc(-c2ccoc2)c2cc(-c3n[nH]c4ccc(-c5cncc(OC6CCCCC6)c5)nc34)[nH]c2c1 [Compound 715, 5-(5-(Cyclohexyloxy)pyridin-3-yl)-3-(4-(furan-3-yl)-1H-indol-2-yl)-1H-pyrazolo[4,3-b]pyridine] | < 5.00
Oc1cncc(-c2ccc3[nH]nc(-c4cc5c(-c6cccs6)cccc5[nH]4)c3n2)c1 [Compound 737, 5-(3-(4-(Thiophen-2-yl)-1H-indol-2-yl)-1H-pyrazolo[4,3-b]pyridin-5-yl) pyridin-3-ol] | 6.46
c1cnc2cc(-c3n[nH]c4ccc(-c5cn[nH]c5)nc34)[nH]c2c1 [Compound 1021, 5-(1H-Pyrazol-4-yl)-3-(1H-pyrrolo[3,2-b]pyridin-2-yl)-1H-pyrazolo[4,3-b] pyridine] | < 5.00
Oc1cncc(-c2ccc3[nH]nc(-c4cc5ncccc5[nH]4)c3n2)c1 [Compound 1031, 5-(3-(1H-Pyrrolo[3,2-b]pyridin-2-yl)-1H-pyrazolo[4,3-b]pyridin-5-yl) pyridin-3-ol] | 7.04

same assay, conditions: LPS 500 ng/mL, given where EC50 >10 μM, 10 μM, read-out: percent inhibition at 10 μM

Compound | inhibition at 10 µM [%]
c1cc(-c2ccoc2)c2cc(-c3n[nH]c4ccc(-c5cncc(OC6CCCCC6)c5)nc34)[nH]c2c1 [Compound 715, 5-(5-(Cyclohexyloxy)pyridin-3-yl)-3-(4-(furan-3-yl)-1H-indol-2-yl)-1H-pyrazolo[4,3-b]pyridine] | 36.2
c1cnc2cc(-c3n[nH]c4ccc(-c5cn[nH]c5)nc34)[nH]c2c1 [Compound 1021, 5-(1H-Pyrazol-4-yl)-3-(1H-pyrrolo[3,2-b]pyridin-2-yl)-1H-pyrazolo[4,3-b] pyridine] | 0

Reference: patent US10226453B2, “3-(1H-indol-2-yl)-1H-pyrazolo[4,3-B]pyridines and therapeutic uses thereof” (Samumed, LLC, priority 2015, dated 2019)
